Assay results reported in patent publication US10399933B2, “Inhibitors of indoleamine-2,3-dioxygenase for the treatment of cancer” (BRISTOL-MYERS SQUIBB COMPANY, priority 2015, dated 2019).
pIC50: −log10 of the molar value.

Each compound was assayed against human IDO1 (Homo sapiens, UniProt P14902) (assay: Human IDO-1 inhibitory activity in HEK cells (human IDO1/HEK293 cellular assay)). Settings: HEK human IDO-1 cellular assay; 500 nM reference standard = 100% inhibition, DMSO = 0%.
Assay type: cell-based
Set-up: expressed in transfected cells
Procedure: They were cultured in medium (DMEM with 10% FBS) containing 1 mg/ml G418 for two weeks.
The human IDO1/HEK293 cells were seeded at 10,000 cells per 50 μL per well with RPMI/phenol red free media contains 10% FBS in a 384-well black wall clear bottom tissue culture plate (Matrix Technologies LLC) 100 nL of certain concentration of compound was then added to each well using ECHO liquid handling systems. The cells were incubated for 20 hours in 37° C. incubator with 5% CO2.
The compound treatments were stopped by adding trichloroacetic acid (Sigma-Aldrich) to a final concentration at 0.2%. The cell plate was further incubated at 50° C. for 30 minute. The equal volume supernatant (20 μL) and 0.2% (w/v) Ehrlich reagent (4-dimethylaminobenzaldehyde, Sigma-Aldrich) in glacial acetic acid were mixed in a new clear bottom 384-well plate. This plate was then incubated at room temperature for 30 minute. The absorbance at 490 nm was measured on Envision plate reader.

Chain of human IDO1 (P14902 whole entry): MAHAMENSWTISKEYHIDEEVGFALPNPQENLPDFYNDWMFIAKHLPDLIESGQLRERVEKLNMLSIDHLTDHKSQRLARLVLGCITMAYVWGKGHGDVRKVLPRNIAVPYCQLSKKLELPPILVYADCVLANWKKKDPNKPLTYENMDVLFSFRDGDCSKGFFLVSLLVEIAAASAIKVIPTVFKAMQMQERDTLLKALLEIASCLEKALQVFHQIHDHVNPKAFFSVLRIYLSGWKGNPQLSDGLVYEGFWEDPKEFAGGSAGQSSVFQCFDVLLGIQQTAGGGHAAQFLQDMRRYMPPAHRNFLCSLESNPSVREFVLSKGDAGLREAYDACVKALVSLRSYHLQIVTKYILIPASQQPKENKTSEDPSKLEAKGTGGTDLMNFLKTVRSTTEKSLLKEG

**Q.** How did the pIC50 turn out when `CCOc1ncc(Nc2cc(C(CC)CC(=O)O)cc(F)c2N(CC(C)C)CC(C)C)cn1` (single isomer, unassigned) [Example 119, 3-(4-(diisobutylamino)-3-((2-ethoxypyrimidin-5-yl)amino)-5-fluorophenyl) pentanoic acid] was run?
**A.** The pIC50 was greater than 8.30.

**Q.** With `CCN(c1ccc([C@H](COC)CC(=O)O)cc1Nc1cnc(OC)nc1)C1CCOCC1` (single isomer, unassigned) [Example 387] as the compound, how does the pIC50 read?
**A.** The pIC50 was greater than 7.30.

**Q.** How did the pIC50 turn out when `CCN(c1ccc([C@H](COC)CC(=O)O)cc1Nc1cnc(C)nc1)C1CCOCC1` (single isomer, unassigned) [Example 416] was run?
**A.** Its pIC50 is less than 7.30.

**Q.** How did the pIC50 turn out when `CCC(CC(=O)O)c1ccc(N(CC)C2CCOCC2)c(NC(=O)Nc2ccc(C)cc2)c1` (single isomer, unassigned) [Example 487 Enantiomer 2, 3-(4-(Ethyl(tetrahydro-2H-pyran-4-yl)amino)-3-(3-(p-tolyl)ureido)phenyl)pentanoic Acid] was run?
**A.** The pIC50 was greater than 8.30.

**Q.** `CCC(CC(=O)O)c1ccc(N(CC)C2CCOCC2)c(NC(=O)Nc2cnc(C)nc2)c1` (single isomer, unassigned) [Example 488 Enantiomer 2, 3-(4-(Ethyl(tetrahydro-2H-pyran-4-yl)amino)-3-(3-(2-methylpyrimidin-5-yl)ureido)phenyl)pentanoic Acid] was tested. Which pIC50 did it give?
**A.** Its pIC50 is less than 7.30.

**Q.** With `CCN(c1ccc(C(CC(=O)O)c2ccccc2)cc1NC(=O)Nc1ccc(C)cc1)C1CCOCC1` (single isomer, unassigned) [Example 594, 3-(4-(Ethyl(tetrahydro-2H-pyran-4-yl)amino)-3-(3-(p-tolyl)ureido)phenyl)-3-phenylpropanoic Acid] as the compound, how does the pIC50 read?
**A.** The pIC50 was less than 7.30.

**Q.** With `CCN(c1ccc(C(CC(=O)O)c2ccccc2)cc1NC(=O)Nc1cc(C)on1)C1CCOCC1` (single isomer, unassigned) [Example 597, 3-(4-(ethyl(tetrahydro-2H-pyran-4-yl)amino)-3-(3-(5-methylisoxazol-3-yl)ureido)phenyl)-3-phenylpropanoic acid] as the compound, how does the pIC50 read?
**A.** The pIC50 was less than 7.30.

**Q.** How did the pIC50 turn out when `CCN(c1ccc(C(C)CC(=O)O)cc1Nc1ccc(Cl)cc1)C1CCOCC1` (single isomer, unassigned) [Example 612 E2, 3-(3-((4-Chlorophenyl)amino)-4-(ethyl(tetrahydro-2H-pyran-4-yl)amino)phenyl)butanoic Acid] was run?
**A.** The pIC50 was greater than 8.30.

**Q.** With `CCN(c1ccc(C(C)CC(=O)O)cc1NC(=O)Nc1ccc(Cl)cc1F)C1CCOCC1` (single isomer, unassigned) [Example 637 E2, 3-(3-(3-(4-Chloro-2-fluorophenyl)ureido)-4-(ethyl (tetrahydro-2H-pyran-4-yl)amino)phenyl)butanoic Acid] as the compound, how does the pIC50 read?
**A.** The pIC50 was greater than 8.30.

**Q.** With `CCCOc1ncc(Nc2cc(C(CC)CC(=O)O)ccc2N(CC(C)C)C2CCCCC2)cn1` (single isomer, unassigned) [Example 654, 3-(4-(cyclohexyl(isobutyl)amino)-3-((2-propoxypyrimidin-5-yl)amino)phenyl)pentanoic acid] as the compound, how does the pIC50 read?
**A.** The pIC50 was greater than 8.30.

**Q.** With `CCCN(CC1CC1)c1ccc(C(CC)CC(=O)O)cc1Nc1ccc(Cl)cc1` (single isomer, unassigned) [Example 656 E2, 3-(3-((4-Chlorophenyl)amino)-4-((cyclopropylmethyl) (propyl)amino)phenyl)pentanoic Acid] as the compound, how does the pIC50 read?
**A.** Its pIC50 is greater than 8.30.

**Q.** With `CCC(CC(=O)O)c1ccc(N2C[C@@H]3C[C@H]2CN3Cc2ccccc2)c(Nc2ccc(C)cc2)c1` (single isomer, unassigned) [Example 666 E2] as the compound, how does the pIC50 read?
**A.** The pIC50 was greater than 8.30.

**Q.** `CCC(CC(=O)O)c1ccc(N(CC(C)C)C(C)C)c(Nc2ccc3nc(C)sc3c2)c1` (single isomer, unassigned) [Example 730, 3-(4-(isobutyl(isopropyl)amino)-3-((2-methylbenzo[d]thiazol-6-yl)amino)phenyl)pentanoic acid] was tested. Which pIC50 did it give?
**A.** The pIC50 was less than 7.30.

**Q.** How did the pIC50 turn out when `CCC(CC(=O)O)c1ccc(N2CCC[C@H]2C(C)(C)F)c(NC(=O)Nc2ccc(OC)cc2F)c1` (single isomer, unassigned) [Example 793] was run?
**A.** Its pIC50 is less than 7.30.

**Q.** With `CCC(CC(=O)O)c1ccc(N2CCC[C@H]2C(C)(C)O)c(NC(=O)Nc2cc(C)on2)c1` (single isomer, unassigned) [Example 831] as the compound, how does the pIC50 read?
**A.** The pIC50 was less than 7.30.

**Q.** How did the pIC50 turn out when `Cc1ccc(CC(=O)Nc2cc(C(C)CC(=O)O)ccc2N(CC(C)C)C2CCOCC2)cc1` (single isomer, unassigned) [Example 967, 3-(4-(Isobutyl(tetrahydro-2H-pyran-4-yl)amino)-3-(2-(p-tolyl)acetamido)phenyl)butanoic Acid] was run?
**A.** Its pIC50 is greater than 7.30.

**Q.** How did the pIC50 turn out when `CCC(CC(=O)O)c1cc(F)c(N(CC(C)C)CC(C)C)c(NC(=O)Cc2ccc(Cl)cc2F)c1` (single isomer, unassigned) [Example 1092 E1] was run?
**A.** Its pIC50 is greater than 8.30.

**Q.** With `CCC(CC(=O)O)c1cc(F)c(N(CC(C)C)CC(C)C)c(NC(=O)Cc2ccc(Cl)cc2F)c1` (single isomer, unassigned) [Example 1092 E2] as the compound, how does the pIC50 read?
**A.** The pIC50 was greater than 8.30.

**Q.** `CCC(CC(=O)O)c1ccc(N(CCC(C)C)C2CCCCC2)c(NC(=O)Cc2ccc(C)cc2)c1` (single isomer, unassigned) [Example 1099 E1] was tested. Which pIC50 did it give?
**A.** Its pIC50 is greater than 7.30.

**Q.** With `CCC(CC(=O)O)c1ccc(N(CCC(C)C)C2CCCCC2)c(NC(=O)Cc2ccc(C)cc2)c1` (single isomer, unassigned) [Example 1099 E2] as the compound, how does the pIC50 read?
**A.** The pIC50 was greater than 7.30.

**Q.** With `CCC(CC(=O)O)c1cc(F)c(N(CC(C)C)C2CCCCC2)c(NC(=O)Cc2ccc(C)cc2)c1` (single isomer, unassigned) [Example 1101 E1] as the compound, how does the pIC50 read?
**A.** Its pIC50 is greater than 8.30.

**Q.** How did the pIC50 turn out when `CCC(CC(=O)O)c1cc(F)c(N(CC(C)C)C2CCCCC2)c(NC(=O)Cc2ccc(C)cc2)c1` (single isomer, unassigned) [Example 1101 E2] was run?
**A.** The pIC50 was greater than 8.30.

**Q.** How did the pIC50 turn out when `CCC(CC(=O)O)c1ccc(N(CC(C)C)CC(C)C)c(NC(=O)Cc2ccc(C)cc2)c1` (single isomer, unassigned) [Example 1103 E2, 3-(4-(Diisobutylamino)-3-(2-(p-tolyl)acetamido)phenyl)pentanoic Acid] was run?
**A.** Its pIC50 is greater than 8.30.

**Q.** How did the pIC50 turn out when `CCOc1ccc(NC(=O)Nc2cc(C(COC)CC(=O)O)cc(F)c2N(CC(C)C)CC(C)C)cc1` (single isomer, unassigned) [Example 1185, 3-(4-(diisobutylamino)-3-(3-(4-ethoxyphenyl)ureido)-5-fluorophenyl)-4-methoxybutanoic acid] was run?
**A.** Its pIC50 is greater than 8.30.

**Q.** With `COCC(CC(=O)O)c1cc(F)c(N(CC(C)C)CC(C)C)c(NC(=O)Nc2ccc(OC(F)(F)F)cc2)c1` (single isomer, unassigned) [Example 1197, 3-(4-(Diisobutylamino)-3-fluoro-5-(3-(4-(trifluoromethoxy)phenyl)ureido)phenyl)-4-methoxybutanoic Acid] as the compound, how does the pIC50 read?
**A.** The pIC50 was greater than 7.30.

**Q.** How did the pIC50 turn out when `COCC(CC(=O)O)c1ccc(N(CC(C)C)C2CCCCC2)c(NC(=O)Cc2cc(C)on2)c1` (single isomer, unassigned) [Example 1238, 3-(4-(Cyclohexyl(isobutyl)amino)-3-(2-(5-methylisoxazol-3-yl)acetamido)phenyl)-4-methoxybutanoic Acid] was run?
**A.** The pIC50 was less than 7.30.

**Q.** How did the pIC50 turn out when `CCN(c1ccc(C(COC(C)C)CC(=O)O)cc1Nc1ccc(F)cc1)C1CCS(=O)(=O)CC1` (stereo not drawn) [Example 316] was run?
**A.** Its pIC50 is greater than 7.30.

**Q.** `CCN(c1ccc(C(COC(C)C)CC(=O)O)cc1Nc1ccc(F)cc1)C1CCS(=O)(=O)CC1` (stereo not drawn) [Example 336] was tested. Which pIC50 did it give?
**A.** Its pIC50 is greater than 7.30.

**Q.** With `CCC(CC(=O)O)c1ccc(N2CCCC2C(C)(C)F)c(NC(=O)Nc2ccc(OC)cc2F)c1` [Example 787, 3-(3-(3-(2-fluoro-4-methoxyphenyl)ureido)-4-((S)-2-(2-(fluoropropan-2-yl)pyrrolidin-1-yl)phenyl)pentanoic acid] as the compound, how does the pIC50 read?
**A.** Its pIC50 is less than 7.30.

**Q.** How did the pIC50 turn out when “(+/−)-Methyl 3-(4-(isobutyl((1 r,4r)-4-methoxycyclohexyl)amino)-3-(3-(p-tolyl)ureido)phenyl)-4-methoxybutanoate [Example 1005]” was run?
**A.** The pIC50 was less than 7.30.
